Data on six molecules can be found in DBAASP.

SMILES strings stand for the structures. Converted amounts (≈) assume the structure as drawn. “And” between values parts separate entries of the source, which are not always exact repeats. Identical values can stand only once.

Among the test systems are Candida albicans MDM8; Escherichia coli SBS 363; Micrococcus luteus A270; Escherichia coli O157; Listeria monocytogenes; Salmonella typhimurium.
What all share (assay): ≥ marks a high value that may be exact or a test limit, other limits are often not marked, values filed in µg/mL are converted to µM
Experiment [1] concerns Bacillus subtilis DSM 347.
The test system of experiment [2] is Escherichia coli DSM 1116.
For experiment [3], the system named is Franconibacter helveticus DSM 18390.
The subject of experiment [4] is Staphylococcus xylosus DSM 20287.
Experiment [5] has as its system Bacillus megaterium ATCC 10778.
The subject of experiment [6] is Bacillus subtilis ATCC 6633.
The subject of experiment [7] is Candida tropicalis IOC 4560.
Experiment [8] has as its system Enterobacter cloacae beta-12.
Experiment [9] relates to Pseudomonas aeruginosa NCIB 10421.
Experiment [10] relates to Serratia marcescens ATCC 4112.
Experiment [11] has as its system Staphylococcus aureus ATCC 29213.
Experiment [12] concerns Acinetobacter baumannii ATCC 17978.
Experiment [13] deals with Candida albicans ATCC 90028.
Experiment [14] has as its system Escherichia coli NCTC 12923.
Experiment [15] concerns Klebsiella pneumoniae NCTC 13368.
For experiment [16], the system named is Pseudomonas aeruginosa PAO1.
Experiment [17] concerns Staphylococcus aureus ATCC 9144.
For experiment [18], the system named is Staphylococcus aureus USA 300.
The test system of experiment [19] is Escherichia coli ATCC 25404.
Experiment [20] has as its system Escherichia coli DH5alpha.
Experiment [21] has as its system Klebsiella pneumoniae ATCC 10031.
In experiment [22] the test system is Micrococcus luteus ATCC 10420.
For experiment [23], the system named is Micrococcus luteus ATCC 4698.
Experiment [24] has as its system Salmonella enterica subsp. enterica serovar Typhimurium ATCC 14028.
Experiment [25] has as its system Staphylococcus aureus ATCC 43300.
Experiment [26] concerns Staphylococcus aureus ATCC 6538.
Experiment [27] relates to Staphylococcus epidermidis ATCC 12228.
The test system of experiment [28] is Staphylococcus epidermidis ATCC 9709.

What is called MIC is the least concentration at which growth counts as inhibited. A higher MIC goes with a need for much substance. For the molecule `CC[C@H](C)[C@H](N)C(=O)N[C@@H](C)C(=O)N[C@@H](CCCCN)C(=O)N[C@H](C(=O)N[C@@H](C)C(=O)NCC(=O)N[C@@H](CCCCN)C(=O)N[C@H](C(=O)N[C@@H](C)C(=O)N[C@@H](CCCCN)C(=O)N[C@H](C(=O)N[C@@H](C)C(=O)NCC(=O)N[C@@H](CCCCN)C(=O)N[C@H](C(=O)N[C@@H](C)C(=O)N[C@@H](CCCCN)C(=O)N[C@H](C(=O)N[C@@H](C)C(=O)NCC(=O)N[C@@H](CCCCN)C(=O)N[C@H](C(=O)N[C@@H](C)C(N)=O)[C@@H](C)CC)[C@@H](C)CC)[C@@H](C)CC)[C@@H](C)CC)[C@@H](C)CC)[C@@H](C)CC` [IAKIAGKIAKIAGKIAKIAGKIA], the MIC turned out to be 0.89 µM (≈ 2 µg/mL) in experiment [1], 1.78 µM (≈ 4 µg/mL) in [2], 1.26 µM (≈ 2.83 µg/mL) in [3] and 0.89 µM (≈ 2 µg/mL) in experiment [4].
In the case of `CC[C@H](C)[C@H](N)C(=O)N[C@@H](CC(C)C)C(=O)N[C@@H](CC(C)C)C(=O)N[C@@H](CCCCN)C(=O)N[C@H](C(=O)N[C@@H](Cc1c[nH]c2ccccc12)C(=O)N[C@@H](CCC(=O)O)C(=O)NCC(=O)N[C@H](C(=O)N[C@@H](CCCCN)C(=O)N[C@@H](CO)C(=O)N[C@@H](CC(C)C)C(=O)N[C@@H](Cc1ccccc1)C(N)=O)[C@@H](C)CC)[C@@H](C)CC` [ILLKIWEGIKSLF], the MIC in [5] was determined as 0.78 µM (≈ 1.22 µg/mL); in experiment [6] it was 0.78 µM (≈ 1.22 µg/mL); in the experiment with Candida albicans MDM8, 3.13 µM (≈ 4.88 µg/mL); in [7], 3.13 µM (≈ 4.88 µg/mL); in experiment [8] it was 12.5 µM (≈ 19.5 µg/mL); against Escherichia coli SBS 363 it was 0.78 µM (≈ 1.22 µg/mL). Also, the MIC is 0.78 µM (≈ 1.22 µg/mL) against Micrococcus luteus A270, no less than 50 µM in experiment [9], 0.36 µM (≈ 0.561 µg/mL) in experiment [10] and 1.56 µM (≈ 2.43 µg/mL) in [11].
For the molecule `C[C@H](NC(=O)CNC(=O)[C@H](CCCCN)NC(=O)[C@@H](N)CS)C(=O)N[C@@H](Cc1ccccc1)C(=O)N[C@@H](CCCCN)C(=O)N[C@@H](CCC(N)=O)C(=O)N[C@H](C(=O)N[C@@H](CS)C(=O)N[C@@H](CCCCN)C(=O)N[C@@H](CS)C(=O)N[C@@H](Cc1ccc(O)cc1)C(N)=O)[C@@H](C)O` [CKGAFKQTCKCY], the MIC in [12] is no less than 92.8 µM; in experiment [13], 4.4 µM (≈ 6.07 µg/mL); in [14], no less than 92.8 µM; in experiment [15], no less than 92.8 µM; in [16], greater than 92.8 µM; in [17], no less than 92.8 µM. The molecule also yielded an MIC in experiment [18] of no less than 92.8 µM.
As to `CC[C@H](C)[C@H](N)C(=O)N[C@@H](C)C(=O)N[C@@H](CCCCN)C(=O)N[C@H](C(=O)N[C@@H](C)C(=O)NCC(=O)N[C@@H](CCCCN)C(=O)N[C@H](C(=O)N[C@@H](C)C(=O)N[C@@H](CCCCN)C(=O)N[C@H](C(=O)N[C@@H](C)C(=O)NCC(=O)N[C@@H](CCCCN)C(=O)N[C@H](C(=O)N[C@@H](C)C(N)=O)[C@@H](C)CC)[C@@H](C)CC)[C@@H](C)CC)[C@@H](C)CC` [IAKIAGKIAKIAGKIA], the MIC in experiment [1] was 28.9 µM (≈ 45.2 µg/mL); in experiment [2], no less than 163 µM; in experiment [3] it was no less than 116 µM; in experiment [4] it was no less than 163 µM.
With `CC(C)C[C@H](NC(=O)[C@H](CC(C)C)NC(=O)[C@H](CCCCN)NC(=O)[C@H](CO)NC(=O)[C@H](CC(C)C)NC(=O)[C@H](C)NC(=O)[C@H](CCCCN)NC(=O)[C@H](Cc1ccccc1)NC(=O)[C@H](CC(C)C)NC(=O)[C@H](C)NC(=O)CNC(=O)[C@H](CC(C)C)NC(=O)[C@@H](N)Cc1ccccc1)C(=O)O` [FLGALFKALSKLL], the MIC in [19] is no less than 64 µM; in experiment [20], no less than 98.5 µM; against Escherichia coli O157, no less than 64 µM; in experiment [21], 17.6 µM (≈ 25 µg/mL); against Listeria monocytogenes, 2 µM (≈ 2.84 µg/mL); in experiment [22] it was 2 µM (≈ 2.84 µg/mL). The minimal inhibitory concentration (MIC) in experiment [23] was 2.11 µM (≈ 3 µg/mL); in [24] it was greater than 70.4 µM; against Salmonella typhimurium, no less than 64 µM; in [11], 4 µM and > 2 µM; in [25] it was 4 µM (≈ 5.68 µg/mL); in experiment [26] it was 3.52 µM (≈ 5 µg/mL). Further, the MIC stood at 6.33 µM (≈ 9 µg/mL) in experiment [27] and 4 µM (≈ 5.68 µg/mL) in experiment [28].
Consider `CC[C@H](C)[C@H](N)C(=O)N[C@@H](CC(C)C)C(=O)NCC(=O)N[C@@H](CCCCN)C(=O)N[C@@H](Cc1ccccc1)C(=O)N[C@@H](Cc1c[nH]c2ccccc12)C(=O)N[C@@H](CCC(=O)O)C(=O)NCC(=O)N[C@H](C(=O)N[C@@H](CCCCN)C(=O)N[C@@H](CO)C(=O)N[C@@H](CC(C)C)C(=O)N[C@@H](Cc1ccccc1)C(N)=O)[C@@H](C)CC` [ILGKFWEGIKSLF], for which the MIC in [5] came out at 0.78 µM (≈ 1.2 µg/mL); in [6], 0.78 µM (≈ 1.2 µg/mL); against Candida albicans MDM8 it was 3.13 µM (≈ 4.81 µg/mL); in experiment [7], 1.56 µM (≈ 2.4 µg/mL); in [8], 12.5 µM (≈ 19.2 µg/mL); against Escherichia coli SBS 363 it was 3.13 µM (≈ 4.81 µg/mL). In addition, the MIC against Micrococcus luteus A270 is 0.78 µM (≈ 1.2 µg/mL); in experiment [9], 25 µM (≈ 38.4 µg/mL); in experiment [10] it was 0.78 µM (≈ 1.2 µg/mL); in experiment [11] it was 6.25 µM (≈ 9.61 µg/mL).
